Experiments:
DCN3 protein = DCN3 protein (Homo sapiens, UniProt Q8IWE4); assay: Intact-protein mass spectrometric analysis, Method B (DCN3); type: binding; conditions: 3 h incubation
Method: Method B: Recombinant DCN1 or DCN3 protein (100 nM in 25 mM Tris 7.5, 200 mM NaCl, 1 mM DTT buffer) was incubated with 1.2-fold excess of the DCN1 inhibitors at 37 °C for 10 min, 1 h, or 3 h. Following incubation, the protein was analyzed by LC–MS (Agilent Q-TOF 6545) under the following conditions: fragmentor voltage, 300 V; skimmer voltage, 75 V; nozzle voltage, 100 V; sheath gas temperature, 350 °C; and drying gas temperature, 325 °C. MassHunter Qualitative Analysis software (Agilent) was used to analyze the data. Intact protein masses were obtained using the maximum entropy deconvolution algorithm. The mass spectrometry data in Supplementary Figs. 14–17 were generated by Method B.

neddylation of cullin 3 [1] = assay: Western blot, cullin 3 neddylation in U2OS cells; type: cell-based, human; conditions: for concentration as low as which cullin 3 neddylation is inhibited / potency in inhibition of cullin 3 neddylation compared with DI-591 / times more potent than DI-591 in inhibition of cullin 3 neddylation: 24 h, Fig. 1c
Method: (§1) Western blotting was performed as described previously. Treated cells were lysed by RIPA buffer supplemented with protease inhibitor. The expression level of indicated proteins was examined by immunoblotting analysis and GAPDH was used as the loading control. Antibodies were purchased commercially: cullin 1 (sc-17775, 1:500 dilution) and cullin 2 (sc-166506, 1:500 dilution) from Santa Cruz Biotech (Santa Cruz, CA); cullin 4A (PA5-14542, 1:1000 dilution), cullin 4B (PA5-50647, 1:1000 dilution), and DCN3 (DCUN1D3, PA5-44000, 1:1000 dilution) from Thermo Fisher Scientific (Wayne, MI); cullin 3 (2759, 1:1000), NRF2 (12721, 1:1000 dilution), HO-1 (70081, 1:1000 dilution), and Bim (2819, 1:1000 dilution) from Cell Signaling Technology (Boston, MA); DCN1 (GWB-E3D700, 1:1000 dilution) from GenWay Biotech (San Diego, CA); and cullin 5 (A302-173A, 1:500 dilution) from Bethyl Labs (Montgomery, TX). Results are representative of two independent experiments.

neddylation of cullin 3 [2] = assay: Western blot, cullin 3 neddylation in cells of different tissue types (U2OS, THLE2, MDA-MB-231, KYSE70, HCT116); type: cell-based, human
Method: as §1

KEAP1 and p62 proteins = assay: Western blot, KEAP1 and p62 in U2OS and THLE2 cells; type: cell-based, human; conditions: 6 h
Method: as §1
Supplementary Figure 22. Western blotting analysis of Keap1 and p62 in U2OS cells (a) and […]
The cells were treated with compounds as indicated for 6 h. Treated cells were harvested and lysed with RIPA buffer. The expression of P62 and Keap1 were examined by western blotting analysis. Antibody information:
Keap1 (cst, #8047), P62 (cst,#5114). GAPDH was used as a loading control. Representative images of two independent experiments are shown. […]

[3] = system: NRF2 protein in mouse liver tissue; assay: Pharmacodynamics: NRF2 protein in mouse liver tissue (western blot); type: in vivo; conditions: single dose 25 mg/kg IP; for upregulation of NRF2 protein in the mouse liver: C57BL/6 male mice
Method: Fig. 7 DI-1859 effectively increases the level of NRF2 protein in the liver tissue and protects liver tissue damage induced by acetaminophen (APAP) in mice. a Western blotting analysis of the effect of DI-1548 or DI-1859 on the level of NRF2 protein in mouse liver tissue. Liver tissues harvested from C57BL/6 male mice treated with DI-1548 or DI-1859 at 25 mg/kg via intraperitoneal (IP) injection was lysed with RIAP buffer. The expression level of NRF2 protein was examined by western blotting. GAPDH was used a loading control. Representative images of two independent experiments are shown. b Analysis of the serum alanine aminotransferase (ALT) level in mice. The time (h) counted from APAP administration in G2 and G5-8, from DI-1859 or vehicle administration in G1, G3, and G4. Data are presented as mean ± s.d. with n = 9 (G1), 9 (G2), 8 (G3), 8 (G4), 9 G5), 9 (G6), 9 (G7), and 9 (G8). c Immunohistological analysis of mouse liver tissues. Images are representatives in each group. Images were taken with a 100× objective. Scale bar: 100 µm. d Analysis of the ROS level in mouse liver tissue. Data are presented as mean ± s.d. with n = 9 (G1), 8 (G2), 8 (G3), 8 (G4), 8 (G5), 6 (G6), 9 (G7), and 9 (G8). G1: Vehicle (qD for 3 days); G2: APAP (400 mg/kg, a single dose); G3: DI-1859 (25 mg/kg, qD for 3 days); G4: DI-1859 (50 mg/kg, qD for 3 days); G5: DI-1859 (25 mg/kg, qD for 3 days), a single dose of APAP at 400 mg/kg administered 3 h after the second dose of DI-1859 administration on day 2; G6: DI-1859 (50 mg/kg, qD for 3 days), a single dose of APAP at 400 mg/kg administered 3 h after the second dose of DI-1859 administration on day 2; G7: APAP (400 mg/kg, a single dose), followed with DI-859 at 25 mg/kg 3 h after APAP administration and two additional doses on day 2 and day 3; and G8: APAP (400 mg/kg, a single dose), followed with DI-859 at 50 mg/kg 3 h after APAP administration and two additional doses on day 2 and day 3. n = 8–9 mice per group. Source data are provided as a Source Data file.
Western blotting was performed as described previously. […]

DCN3 protein, sequence (Q8IWE4 86-304 limits assumed): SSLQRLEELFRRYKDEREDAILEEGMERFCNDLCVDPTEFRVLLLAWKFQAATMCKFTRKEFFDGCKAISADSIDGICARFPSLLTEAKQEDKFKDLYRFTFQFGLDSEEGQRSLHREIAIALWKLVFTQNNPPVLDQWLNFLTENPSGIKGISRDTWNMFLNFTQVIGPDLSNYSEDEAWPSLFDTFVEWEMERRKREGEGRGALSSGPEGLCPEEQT

| SMILES | covalent complex formation with DCN3 (DCN3 protein) | concentration as low as which cullin 3 neddylation is inhibited (neddylation of cullin 3 [1]) [nM] | potency in inhibition of cullin 3 neddylation compared with DI-591 (neddylation of cullin 3 [1]) | times more potent than DI-591 in inhibition of cullin 3 neddylation (neddylation of cullin 3 [1]) | time within which the neddylation of cullin 3 is effectively inhibited (neddylation of cullin 3 [1]; U2OS, Fig. 6c) [min] | concentration achieving profound inhibition of the neddylation of cullin 3 (neddylation of cullin 3 [2]) [nM] | concentration as low as which the level of neddylated cullin 3 is significantly reduced (neddylation of cullin 3 [2]) [nM] | effect on protein levels of KEAP1 and p62 (KEAP1 and p62 proteins) | upregulation of NRF2 protein in the mouse liver [3] | persistence of upregulation of NRF2 in mouse liver [3] [h] |
| --- | --- | --- | --- | --- | --- | --- | --- | --- | --- | --- |
| C=C(CN1CCOCC1)C(=O)NC[C@@H](NC(=O)[C@H](Cc1nc2ccc(C(C)C)cc2s1)NC(=O)CC)C1CCCCC1 [DI-1548] | fail to form any detectable complex | ≤ 1 | much more potent than DI-591 | ~ 1000 times | ≤ 5 | 1 to 3 | ≤ 0.3 | no obvious effect | robust upregulation | – |
| C=C(CN(C)C)C(=O)NC[C@@H](NC(=O)[C@H](Cc1nc2ccc(C(C)C)cc2s1)NC(=O)CC)C1CCCCC1 [DI-1859] | fail to form any detectable complex | ≤ 1 | much more potent than DI-591 | ~ 1000 times | – | 1 to 3 | ≤ 0.3 | no obvious effect | robust upregulation | > 24 |

From article PMC8113459, “Selective inhibition of cullin 3 neddylation through covalent targeting DCN1 protects mice from acetaminophen-induced liver toxicity” (Nature Communications, 2021)
